From US20250367308A1, “LIGAND-DRUG CONJUGATE OF CAMPTOTHECIN ANALOGS, INTERMEDIATES, PREPARATION METHOD THEREFOR, PHARMACEUTICAL COMPOSITION AND APPLICATION THEREOF” (SHANGHAI MICURX PHARMACEUTICAL CO.,LTD., priority 2022, published 2025)

System: Human lung adenocarcinoma cell line A549
Assay: In vitro cytotoxicity test of camptothecin payloads (CellTiter-Glo)
Type: cell-based
Conditions: Homo sapiens, A549, 72 h, read-out: A549 Cytotoxicity IC50 (nM)
Protocol: Human lung adenocarcinoma cell line A549 was used to evaluate the cytotoxicity of small molecule fragment of the present invention. A549 cells were seeded to a 96-well plate at 2000 cells per well.

Structure (SMILES) | IC50
CC[C@@]1(O)C(=O)OCc2c1cc1n(c2=O)Cc2c-1nc1cc(F)c(C)cc1c2CN1CCC(C)(CO)C1 (stereo partly drawn) [Example 24, (4S)-4-ethyl-8-fluoro-4-hydroxy-11-((3-(hydroxymethyl)-3-methylpyrrolidin-1-yl)methyl)-9-methyl-1H-pyrano[3′,4′:6,7] indolizino[1,2-b]quinoline-3,14(4H,12H)-dione] | 43 nM
CC[C@@]1(O)C(=O)OCc2c1cc1n(c2=O)Cc2c-1nc1cc(F)c(C)cc1c2CN1C2CCC1(CO)CC2 [Example 20, (S)-4-ethyl-8-fluoro-4-hydroxy-11-((1-(hydroxymethyl)-7-azabicyclo[2.2.1]heptan-7-yl)methyl)-9-methyl-1H-pyrano[3′,4′:6,7] indolizino[1,2-b]quinoline-3,14(4H,12H)-dione] | 24.1 nM
CC[C@@]1(O)C(=O)OCc2c1cc1n(c2=O)Cc2c-1nc1cc(F)c(C)cc1c2CN1CCC[C@@H](O)C1 [Example 18, (S)-4-ethyl-8-fluoro-4-hydroxy-11-(((R)-3-hydroxypiperidin-1-yl)methyl)-9-methyl-1H-pyrano[3′,4′:6,7] indolizino[1,2-b]quinoline-3,14(4H,12H)-dione] | 19.7 nM
CC[C@@]1(O)C(=O)OCc2c1cc1n(c2=O)Cc2c-1nc1ccc(O)cc1c2CN1CCC([C@@H](C)O)CC1 [Example 38, (S)-4-ethyl-4,9-dihydroxy-11-((4-((R)-1-hydroxyethyl)piperidin-1-yl)methyl)-1,12-dihydro-14H-pyrano[3′,4′:6,7] indolizino[1,2-b]quinoline-3,14(4H)-dione] | 1250 nM
CC[C@@]1(O)C(=O)OCc2c1cc1n(c2=O)Cc2c-1nc1cc(F)c(C)cc1c2CN1CC2C(C1CO)C2(C)C (stereo partly drawn) [Example 23, (4S)-4-ethyl-8-fluoro-4-hydroxy-11-((2-(hydroxymethyl)-6,6-dimethyl-3-azabicyclo[3.1.0]hexan-3-yl)methyl)-9-methyl-1H-pyrano[3′,4′:6,7] indolizino[1,2-b]quinoline-3,14(4H,12H)-dione] | 49 nM
CC[C@@]1(O)C(=O)OCc2c1cc1n(c2=O)Cc2c-1nc1cc(F)c(C)cc1c2CN1C[C@H]2C[C@@H](C1)C2O (stereo partly drawn) [Example 47, (4S)-4-ethyl-8-fluoro-4-hydroxy-11-(((1R,5S)-6-hydroxy-3-azabicyclo[3.1.1]heptan-3-yl)methyl)-9-methyl-1,12-dihydro-14H-pyrano[3',4':6,7] indolizino[1,2-b]quinoline-3,14(4H)-dione] | 28 nM
CC[C@@]1(O)C(=O)OCc2c1cc1n(c2=O)Cc2c-1nc1cc(F)c(C)c3c1c2[C@@H](NC(=O)CO)CC3 [Dxd, reference compound] | 78 nM
CC[C@@]1(O)C(=O)OCc2c1cc1n(c2=O)Cc2c-1nc1cc(F)c(C)cc1c2CN1CCC([C@@H](C)O)CC1 [Example 15, (S)-4-ethyl-8-fluoro-4-hydroxy-11-((4-((R)-1-hydroxyethyl)piperidin-1-yl)methyl)-9-methyl-1H-pyrano[3′,4′:6,7] indolizino[1,2-b]quinoline-3,14(4H,12H)-dione] | 17.6 nM
CC[C@@]1(O)C(=O)OCc2c1cc1n(c2=O)Cc2c-1nc1cc(F)c(C)cc1c2C(C)N1CCC([C@@H](C)O)CC1 (stereo partly drawn) [Example 39, (4S)-4-ethyl-8-fluoro-4-hydroxy-11-(1-(4-((R)-1-hydroxyethyl)piperidin-1-yl)ethyl)-9-methyl-1,12-dihydro-14H-pyrano[3′,4′:6,7] indolizino[1,2-b]quinoline-3,14(4H)-dione] | 128 nM
CC[C@@]1(O)C(=O)OCc2c1cc1n(c2=O)Cc2c-1nc1cc(F)c(C)cc1c2CN1CCC(C(C)O)CC1 (stereo partly drawn) [Example 13, (4S)-4-ethyl-8-fluoro-4-hydroxy-11-((4-(1-hydroxyethyl)piperidin-1-yl)methyl)-9-methyl-1H-pyrano[3′,4′:6,7] indolizino[1,2-b]quinoline-3,14(4H,12H)-dione] | 33 nM
